Data on 24 compounds can be found in US8877747B2, “Indenone derivative and pharmaceutical composition comprising same” (Korea Research Institute of Chemical Technology, priority 2009, dated 2014).

Test [1] has as its system ovariectomized female DDY mice. The experiment in a line: Bone density after ovariectomy, in-vivo micro-CT. Set-up: species or system mouse. The settings on record: oral once a day for 4 weeks. The text has this:
(§1) Most pharmacological effectiveness of therapeutic agents for osteoporosis has been evaluated using an animal, rather than a human. Particularly, as a model animal for osteoporosis occurring after menopause, ovariectomized female rats have been used for its similarity to women after menopause. To examine the effects of the indenone derivatives on the bone resorption, female SD rats and female DDY mice were subjected to ovariectomy. After the rats or mice were anesthetized by abdominally injecting 25 mg/kg of sodium pentobarbital (Choongwae pharma coporation), the fur of the abdominal region was shaved and the operation area was sterilized. About 1.5 cm of abdominal skin, abdominal muscle, and peritoneum were cut in the middle under aseptic condition, and ovary was exposed, followed by removal of both left and right ovaries after ligaturing of oviducts using silk threads. Then, peritoneum, abdominal muscle and skin were sutured with silk threads. The Sham group, animals operated upon for the surgery as in the ovariectomized rats except for removing ovary, was employed to compare the effects. […]

Test [2] deals with ovariectomized female SD rats. The experiment in a line: Bone density after ovariectomy, in-vivo micro-CT. Also noted: species or system rat. The settings on record: oral once a day for 4 weeks.
Description: as §1

Test [3] has as its system MC3T3-E1 cells. The experiment in a line: ALP activity, differentiation of osteoblast cells. It is filed as cell-based. The settings on record: Mus musculus, MC3T3-E1, 144 h; MC3T3E1 cells treated with 10 μM compound and OF; relates activity to OF-only group (100%); higher = more efficacious. In short, it runs like this:
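MC3T3-E1 cells were cultured 6 days at 37 °C in osteogenic medium (ascorbic acid, β-glycerophosphate) with compound at 0.1, 1 and 10 μM; medium and compound were renewed every 2-3 days. Freeze-thaw lysates were protein-normalised and ALP activity was read with 4-nitrophenylphosphate; DMSO and OF-only groups served as comparators.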

Each structure is given as a SMILES string. Where a name gives a salt, the structure may show the parent alone.

Consider `O=C1C(c2cccnc2)=C(c2ccccc2)c2ccc(OCCN3CCOCC3)cc21` [Example 1, 6-(2-morpholinoethoxy)-3-phenyl-2-(pyridin-3-yl)-1H-inden-1-one hydrochloride salt], for which the “Bone density (FIG. 3A)” value in test [1] is listed as “significantly increased”. Also, the “Bone density (FIG. 3B)” value in test [2] was “significantly increased”. Further, the activity at 10 µM in test [3] is 455%.

As for `CS(=O)(=O)N1CCN(CCCOc2ccc3c(c2)C(=O)C(c2cnc4ccccc4c2)=C3c2cc(F)cc(F)c2)CC1` [Example 104, 3-(3,5-difluorophenyl)-6-{3-[4-(methylsulfonyl)piperazin-1-yl]propoxy}-2-(quinolin-3-yl)-1H-inden-1-one hydrochloride salt], in test [3], the activity at 10 µM turned out to be 124%.

As for `Cc1ccc(C2=C(c3cc(F)cc(F)c3)c3ccc(OCCCN4CCN(S(C)(=O)=O)CC4)cc3C2=O)cc1` [Example 105, 3-(3,5-Difluorophenyl)-6-{3-[4-(methylsulfonyl)piperazin-1-yl]propoxy}-2-p-tolyl-1H-inden-1-one hydrochloride salt], the activity at 10 µM in test [3] was 99%.

For `COc1ccc(C2=C(c3cc(F)cc(F)c3)c3ccc(OCCCN4CCN(S(C)(=O)=O)CC4)cc3C2=O)cc1F` [Example 106, 2-(3-fluoro-4-methoxyphenyl)-3-(3,5-difluorophenyl)-6-{3-[4-(methylsulfonyl)piperazin-1-yl]propoxy}-1H-inden-1-one hydrochloride salt], in test [3], the activity at 10 µM came out at 133%.

In the case of `COc1ccc(C2=C(c3cc(F)cc(F)c3)c3ccc(OCCCN4CCN(S(C)(=O)=O)CC4)cc3C2=O)cn1` [Example 107, 3-(3,5-difluorophenyl)-2-(6-methoxypyridin-3-yl)-6-{3-[4-(methylsulfonyl)piperazin-1-yl]propoxy}-1H-inden-1-one hydrochloride salt], the activity at 10 µM in test [3] was 286%.

Turning to `Cc1ccc(C2=C(c3ccc(F)cc3F)c3ccc(OCCCN4CCN(S(C)(=O)=O)CC4)cc3C2=O)cc1` [Example 108, 3-(2,4-difluorophenyl)-6-{3-[4-(methylsulfonyl)piperazin-1-yl]propoxy}-2-p-tolyl-1H-inden-1-one], the activity at 10 µM in test [3] came out at 111%.

On to `COc1ccc(C2=C(c3ccc(F)cc3F)c3ccc(OCCCN4CCN(S(C)(=O)=O)CC4)cc3C2=O)cn1` [Example 109, 3-(2,4-difluorophenyl)-6-{3-[4-(methylsulfonyl)piperazin-1-yl]propoxy}-2-(6-methoxypyridin-3-yl)-1H-inden-1-one], for which, in test [3], the activity at 10 µM came to 177%.

With `COc1ccc(C2=C(c3ccc(F)cc3F)c3ccc(OCCCN4CCN(S(C)(=O)=O)CC4)cc3C2=O)cc1F` [Example 110, 2-(3-fluoro-4-methoxyphenyl)-3-(2,4-difluorophenyl)-6-{3-[4-(methylsulfonyl)piperazin-1-yl]propoxy}-1H-inden-1-one], the activity at 10 µM in test [3] came to 207%.

Turning to `CS(=O)(=O)N1CCN(CCCOc2ccc3c(c2)C(=O)C(c2cnc4ccccc4c2)=C3c2ccc(F)cc2F)CC1` [Example 111, 3-(2,4-difluorophenyl)-6-{3-[4-(methylsulfonyl)piperazin-1-yl]propoxy}-2-(quinolin-3-yl)-1H-inden-1-one], the activity at 10 µM in test [3] is 117%.

Take `Cc1ccc(C2=C(c3ccc(F)cc3F)c3ccc(OCCN4CCS(=O)(=O)CC4)cc3C2=O)cc1` [Example 112, 3-(2,4-difluorophenyl)-6-[2-(1,1-dioxothiomorpholin-4-yl)ethoxy]-2-p-tolyl-1H-inden-1-one]: the activity at 10 µM in test [3] worked out at 70%.

In the case of `COc1ccc(C2=C(c3ccc(F)cc3F)c3ccc(OCCN4CCS(=O)(=O)CC4)cc3C2=O)cn1` [Example 113, 3-(2,4-difluorophenyl)-2-(6-methoxypyridin-3-yl)-6-[2-(1,1-dioxothiomorpholin-4-yl)ethoxy]-1H-inden-1-one], the activity at 10 µM in test [3] was 217%.

`COc1ccc(C2=C(c3ccc(F)cc3F)c3ccc(OCCN4CCS(=O)(=O)CC4)cc3C2=O)cc1F` [Example 114, 2-(3-fluoro-4-methoxyphenyl)-3-(2,4-difluorophenyl)-6-[2-(1,1-dioxothiomorpholin-4-yl)ethoxy]-1H-inden-1-one]: the activity at 10 µM in test [3] is 286%.

`O=C1C(c2cnc3ccccc3c2)=C(c2ccc(F)cc2F)c2ccc(OCCN3CCS(=O)(=O)CC3)cc21` [Example 115, 3-(2,4-difluorophenyl)-6-[2-(1,1-dioxothiomorpholin-4-yl)ethoxy]-2-(quinolin-3-yl)-1H-inden-1-one]: the activity at 10 µM in test [3] was found to be 199%.

For `Cc1ccc(C2=C(c3ccc(F)cc3F)c3ccc(OCCN4CCN(S(C)(=O)=O)CC4)cc3C2=O)cc1` [Example 116, 3-(2,4-difluorophenyl)-6-{2-[4-(methylsulfonyl)piperazin-1-yl]ethoxy}-2-p-tolyl-1H-inden-1-one], the activity at 10 µM in test [3] worked out at 71%.

On to `COc1ccc(C2=C(c3ccc(F)cc3F)c3ccc(OCCN4CCN(S(C)(=O)=O)CC4)cc3C2=O)cn1` [Example 117, 3-(2,4-difluorophenyl)-2-(6-methoxypyridin-3-yl)-6-{2-[4-(methylsulfonyl)piperazin-1-yl]ethoxy}-1H-inden-1-one], for which the activity at 10 µM in test [3] was found to be 98%.

For `COc1ccc(C2=C(c3ccc(F)cc3F)c3ccc(OCCN4CCN(S(C)(=O)=O)CC4)cc3C2=O)cc1F` [Example 118, 2-(3-fluoro-4-methoxyphenyl)-3-(2,4-difluorophenyl)-6-{2-[4-(methylsulfonyl)piperazin-1-yl]ethoxy}-1H-inden-1-one], in test [3], the activity at 10 µM came out at 311%.

Take `CS(=O)(=O)N1CCN(CCOc2ccc3c(c2)C(=O)C(c2cnc4ccccc4c2)=C3c2ccc(F)cc2F)CC1` [Example 119, 3-(2,4-difluorophenyl)-6-{2-[4-(methylsulfonyl)piperazin-1-yl]ethoxy}-2-(quinolin-3-yl)-1H-inden-1-one]: the activity at 10 µM in test [3] was determined as 170%.

Regarding `Cc1ccc(C2=C(c3ccc(F)cc3F)c3ccc(OCCC4CCN(S(C)(=O)=O)CC4)cc3C2=O)cc1` [Example 120, 3-(2,4-difluorophenyl)-6-{2-[1-(methylsulfonyl)piperidin-4-yl]ethoxy}-2-p-tolyl-1H-inden-1-one], the activity at 10 µM in test [3] stood at 169%.

Consider `COc1ccc(C2=C(c3ccc(F)cc3F)c3ccc(OCCC4CCN(S(C)(=O)=O)CC4)cc3C2=O)cn1` [Example 121, 3-(2,4-difluorophenyl)-2-(6-methoxypyridin-3-yl)-6-{2-[1-(methylsulfonyl)piperidin-4-yl]ethoxy}-1H-inden-1-one], for which the activity at 10 µM in test [3] is 207%.

For the compound `COc1ccc(C2=C(c3ccc(F)cc3F)c3ccc(OCCC4CCN(S(C)(=O)=O)CC4)cc3C2=O)cc1F` [Example 122, 2-(3-fluoro-4-methoxyphenyl)-3-(2,4-difluorophenyl)-6-{2-[1-(methylsulfonyl)piperidin-4-yl]ethoxy}-1H-inden-1-one], the activity at 10 µM in test [3] is 203%.

Regarding `CS(=O)(=O)N1CCC(CCOc2ccc3c(c2)C(=O)C(c2cnc4ccccc4c2)=C3c2ccc(F)cc2F)CC1` [Example 123, 3-(2,4-difluorophenyl)-6-{2-[1-(methylsulfonyl)piperidin-4-yl]ethoxy}-2-(quinolin-3-yl)-1H-inden-1-one], the activity at 10 µM in test [3] is 164%.

`COc1ccc(C2=C(c3ccc(F)cc3F)c3ccc(OCCN4CCOCC4)cc3C2=O)cn1` [Example 125, 3-(2,4-difluorophenyl)-2-(6-methoxypyridin-3-yl)-6-[2-(morpholin-4-yl)ethoxy]-1H-inden-1-one]: in test [3], the activity at 10 µM is 63%.

`COc1ccc(C2=C(c3ccc(F)cc3F)c3ccc(OCCN4CCOCC4)cc3C2=O)cc1F` [Example 126, 2-(3-fluoro-4-methoxyphenyl)-3-(2,4-difluorophenyl)-6-[2-(morpholin-4-yl)ethoxy]-1H-inden-1-one]: in test [3], the activity at 10 µM worked out at 73%.

Regarding `O=C1C(c2cnc3ccccc3c2)=C(c2ccc(F)cc2F)c2ccc(OCCN3CCOCC3)cc21` [Example 127, 3-(2,4-difluorophenyl)-6-[2-(morpholin-4-yl)ethoxy]-2-(quinolin-3-yl)-1H-inden-1-one], the activity at 10 µM in test [3] amounted to 55%.
